For assay [1], the target named is human wild type FGFR3 (Homo sapiens (Human), UniProt P22607). Briefly: FGFR3 pERK Cell Assay. The format is cell-based. Particulars: HEK-293 cells, 1 hour compound, 100 ng/ml human FGF-acidic; maximum concentration 5 μM. As for the experimental part: HEK-293 cells transfected with dox-inducible human wild type FGFR3 (SEQ ID NO: 5) were plated in a collagen or poly-D-lysine coated 96 well flat bottom plates at 4×10^5 cells/well in complete DMEM medium containing 10% FBS and 1 μg/ml doxycycline and allowed to attach for 24 h at 37° C., 5% CO2. Cells were treated with compound using 1:3 serial dilutions with a maximum final concentration of 5 μM. Compound was incubated on cells for 1 hour at 37° C., 5% CO2. Cells were then stimulated with a final concentration of 100 ng/ml human FGF-acidic (R&D Systems Cat number 232-FA/CF) for 5 minutes at 37° C., 5% CO2. Medium was removed, and cells were lysed with lysis buffer containing phosphatase and protease inhibitors. Phospho ERK1/2 was measured using the Meso Scale Discovery sandwich assay (Meso Scale Discovery cat. no. K151DWD). The assay captures phospho ERK1/2 and detects with a sulfo-tagged total ERK1/2 antibody. The chemiluminescent signal was read on the Sector Imager Plate reader. 100 POC was determined using no test compounds and 0 POC was determined using a control compound. The POC values were fit to a 4-parameter logistic curve as a function of the concentration of the compound, and the IC50 value is the point where the curve crosses 50 POC.
Sequence of human wild type FGFR3 (P22607 23-806): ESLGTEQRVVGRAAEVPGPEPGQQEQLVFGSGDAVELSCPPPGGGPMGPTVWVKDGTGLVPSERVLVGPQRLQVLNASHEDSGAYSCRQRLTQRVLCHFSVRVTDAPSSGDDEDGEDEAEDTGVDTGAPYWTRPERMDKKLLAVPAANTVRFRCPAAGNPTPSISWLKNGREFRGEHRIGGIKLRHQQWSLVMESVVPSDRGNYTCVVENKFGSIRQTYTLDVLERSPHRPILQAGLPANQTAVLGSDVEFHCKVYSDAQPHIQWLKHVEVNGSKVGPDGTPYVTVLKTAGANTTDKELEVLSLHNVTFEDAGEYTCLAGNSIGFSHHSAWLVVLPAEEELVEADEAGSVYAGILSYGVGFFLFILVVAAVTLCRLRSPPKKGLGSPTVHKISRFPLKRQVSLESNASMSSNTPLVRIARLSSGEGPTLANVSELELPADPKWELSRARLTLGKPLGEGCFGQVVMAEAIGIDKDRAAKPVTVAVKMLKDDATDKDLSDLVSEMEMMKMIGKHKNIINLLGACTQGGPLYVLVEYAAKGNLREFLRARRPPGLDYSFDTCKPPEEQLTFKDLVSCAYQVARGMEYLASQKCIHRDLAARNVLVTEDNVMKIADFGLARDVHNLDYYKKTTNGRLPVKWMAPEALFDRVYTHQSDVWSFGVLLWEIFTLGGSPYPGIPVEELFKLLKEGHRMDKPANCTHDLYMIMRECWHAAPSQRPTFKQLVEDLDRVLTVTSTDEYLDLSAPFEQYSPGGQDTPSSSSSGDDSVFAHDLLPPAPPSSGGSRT

Assay [2] has as its target dephosphorylated FGFR1 (Homo sapiens (Human), UniProt P11362). Briefly: FGFR Enzyme Binding Assay (HTRF tracer displacement), FGFR1. Particulars: 5 nM dephosphorylated FGFR1, 60 minute incubation at 22° C.; read-out: FGFR1 Enz Binding IC50. As for the experimental part:
The potency of compounds inhibiting human isoforms of FGFR kinase was determined using Life Technologies' Homogeneous Time Resolved Fluorescence (HTRF)-based binding assay technology. An incubation was conducted with either 5 nM dephosphorylated FGFR1 (Array Biopharma, p1702; SEQ ID NO: 1, amino acids 458 to 765, dephosphorylated by co-expression with PTP1b (protein tyrosine phosphatase 1B)), 5 nM dephosphorylated FGFR2 (Life Technologies, Cat. No. PV4106 that had been dephosphorylated with Lambda protein phosphatase (New England Biolabs, cat #P0753)) or 5 nM phosphorylated FGFR3 (Array Biopharma, p1836; SEQ ID NO: 5, amino acids 449 to 759), 50 nM Kinase Tracer 236 (Life Technologies Cat. No. PR9078A), 2 nM Biotin-anti-6HIS (Life Technologies Cat. No. PV6090) and 2 nM Europium-Streptavidin (Life Technologies Cat. No. PV6025) along with test compound in a buffer consisting of 50 mM HEPES ((4-(2-hydroxyethyl)-1-piperazineethanesulfonic acid, pH 7.5), 5 mM MgCl2, 0.005% Triton X-100, 1 mM DTT, 1 mM NaVO4 and 2% DMSO in a final volume of 12 μL Compounds were typically prepared as a 3-fold or 4-fold serial dilution in DMSO and added to the assay to give the appropriate final concentration. After a 60 minute incubation at 22° C., the extent of tracer displacement was determined using a PerkinElmer EnVision multimode plate reader via HTRF dual wavelength detection, and the percent of control (POC) was calculated using a ratiometric emission factor. One hundred POC was determined using no test compound, and 0 POC was determined in the presence of 1 μM of an appropriate control inhibitor. A 4-parameter logistic curve was fit to the POC values as a function of the concentration of compound, and the IC50 value was the point where the best-fit curve crossed 50 POC.

The target of assay [3] is recombinant human FGFR1 catalytic domain (Homo sapiens (Human), UniProt P11362). Description: FGFR Enzyme Activity Assay (LanthaScreen TR-FRET), FGFR1. The format is biochemical. The note with it: 15 μM ATP, 20 minutes incubation; read-out: FGFR1 Enz FRET IC50. As for the experimental part: FGFR1 kinase activity was measured by the Invitrogen LanthaScreen™ Assay technology which directly measures the amount of substrate phosphorylation by Time-resolved fluorescence energy transfer (TR-FRET) using a flourescently-labeled peptide and Europium-labeled antibody. Briefly, 200 pM His-tagged recombinant human FGFR1 catalytic domain (amino acids 308-731) (Life Technologies Cat. No. PR4660A) was incubated with 100 nM Alexa Fluor® 647-Poly-GT Peptide Substrate (Life Technologies Cat. No. PV5836) and 15 μM ATP along with test compound in a buffer consisting of 250 mM HEPES, 25 mM MgCl2, 0.05% TritonX-100, pH 7.5, and 2% DMSO. Compounds were typically prepared in a threefold serial dilution in DMSO and added to the assay to give the appropriate final concentration. After a 20 minutes incubation at 22° C., an equal volume of 2 nM LanthaScreen® Eu-PY20 Antibody (Life Technologies Cat. No. PV5691) and 10 mM EDTA was added to quench the kinase reaction and start the detection reaction. After an additional 60 minute incubation at 22° C., the reaction was measured using a PerkinElmer EnVision multimode plate reader via TR-FRET dual wavelength detection, and the percent of control (POC) calculated using a ratiometric emission factor. 100 POC was determined using no test compounds and 0 POC was determined using no enzyme. The POC values were fit to a 4-parameter logistic curve as a function of the concentration of the compound, and the IC50 value is the point where the curve crosses 50 POC.
Sequence of recombinant human FGFR1 catalytic domain (P11362 other isoform, or with tags, fused parts or gaps): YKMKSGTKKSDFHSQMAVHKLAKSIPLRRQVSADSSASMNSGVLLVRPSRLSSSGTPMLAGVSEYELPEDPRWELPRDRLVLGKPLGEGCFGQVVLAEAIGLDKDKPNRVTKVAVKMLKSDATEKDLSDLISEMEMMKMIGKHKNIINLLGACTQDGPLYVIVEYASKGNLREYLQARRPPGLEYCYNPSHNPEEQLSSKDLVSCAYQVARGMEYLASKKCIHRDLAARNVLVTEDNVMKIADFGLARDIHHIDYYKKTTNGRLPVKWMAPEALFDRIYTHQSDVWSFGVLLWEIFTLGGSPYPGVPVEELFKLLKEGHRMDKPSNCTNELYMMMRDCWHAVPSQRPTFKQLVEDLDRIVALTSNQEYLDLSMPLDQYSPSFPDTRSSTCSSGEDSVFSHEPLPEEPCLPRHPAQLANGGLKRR
(In general: In TR-FRET formats the signal depends on donor and acceptor labels being close together.)

The target of assay [4] is recombinant human FGFR2 cytoplasmic domain (Homo sapiens (Human), UniProt P21802). Briefly: FGFR Enzyme Activity Assay (LanthaScreen TR-FRET), FGFR2. The format is biochemical. Particulars: 15 μM ATP, 20 minute incubation; read-out: FGFR2 Enz FRET IC50. How it is done:
FGFR2 kinase activity was measured by the Invitrogen LanthaScreen™ Assay technology which directly measures the amount of substrate phosphorylation by TR-FRET using a flourescently-labeled peptide and Europium-labeled antibody. Briefly, 200 pM His-tagged recombinant human FGFR2 cytoplasmic domain (amino acids 403-822) (Life Technologies Cat. No. PR5332A) was incubated with 100 nM Alexa Fluor® 647-Poly-GT Peptide Substrate (Life Technologies Cat. No. PV5836) and 15 μM ATP along with test compound in a buffer consisting of 250 mM HEPES, 25 mM MgCl2, 0.05% TritonX-100, pH 7.5, and 2% DMSO. Compounds were typically prepared in a threefold serial dilution in DMSO and added to the assay to give the appropriate final concentration. After a 20 minute incubation at 22° C., an equal volume of 2 nM LanthaScreen® Eu-PY20 Antibody (Life Technologies Cat. No. PV5691) and 10 mM EDTA were added to quench the kinase reaction and start the detection reaction. After an additional 60 minute incubation at 22° C., the reaction was measured using a PerkinElmer EnVision multimode plate reader via TR-FRET dual wavelength detection, and the percent of control (POC) calculated using a ratiometric emission factor. 100 POC was determined using no test compounds and 0 POC was determined using no enzyme. The POC values were fit to a 4-parameter logistic curve as a function of the concentration of the compound, and the IC50 value is the point where the curve crosses 50 POC.

For orientation: IC50 means the concentration needed to halve the response being measured.

Sequence of recombinant human FGFR2 cytoplasmic domain (P21802 402-821): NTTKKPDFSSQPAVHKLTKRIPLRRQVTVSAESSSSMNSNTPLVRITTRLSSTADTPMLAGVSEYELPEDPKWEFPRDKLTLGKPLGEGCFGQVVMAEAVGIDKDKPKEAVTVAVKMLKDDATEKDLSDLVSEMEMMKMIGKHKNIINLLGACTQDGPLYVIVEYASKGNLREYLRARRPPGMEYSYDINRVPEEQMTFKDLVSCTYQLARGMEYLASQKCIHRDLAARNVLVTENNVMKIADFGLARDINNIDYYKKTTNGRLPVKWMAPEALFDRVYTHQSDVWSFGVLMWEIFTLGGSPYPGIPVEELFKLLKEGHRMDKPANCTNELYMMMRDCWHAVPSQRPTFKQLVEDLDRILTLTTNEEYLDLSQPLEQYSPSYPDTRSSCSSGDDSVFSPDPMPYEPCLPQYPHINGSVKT
Sequence of dephosphorylated FGFR1 (P11362 458-765): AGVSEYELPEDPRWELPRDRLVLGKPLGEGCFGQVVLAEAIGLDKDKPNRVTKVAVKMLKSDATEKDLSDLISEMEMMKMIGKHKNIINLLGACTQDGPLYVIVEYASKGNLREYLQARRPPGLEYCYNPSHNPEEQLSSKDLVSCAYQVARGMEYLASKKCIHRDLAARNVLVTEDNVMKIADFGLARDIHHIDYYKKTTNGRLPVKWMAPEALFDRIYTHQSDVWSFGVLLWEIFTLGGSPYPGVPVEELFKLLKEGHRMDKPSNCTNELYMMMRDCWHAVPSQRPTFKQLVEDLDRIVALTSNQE

Turning to `COc1cc(Nc2ccc3ncc(-c4cnn(C5CCN(C(=O)C6CN(C(=O)/C=C/CN(C)C)C6)CC5)c4)nc3c2)cc(OC)c1` [Example 9, (E)-1-(3-(4-(4-(7-((3,5-dimethoxyphenyl)amino)-quinoxalin-2-yl)-1H-pyrazol-1-yl)piperidine-1-carbonyl)azetidin-1-yl)-4-(dimethylamino)but-2-en-1-one], the IC50 in assay [1] amounted to 184 nM; in assay [2], 22 nM; in assay [3], 29 nM; in assay [4], 10 nM.

`COc1cc(Nc2ccc3ncc(-c4cn(C5CCN(C(=O)C6(F)CN(C(=O)/C=C/CN(C)C)C6)CC5)nc4C)nc3c2)cc(OC)c1` [Example 22, (E)-1-(3-(4-(4-(7-((3,5-dimethoxyphenyl)amino)-quinoxalin-2-yl)-3-methyl-1H-pyrazol-1-yl)-piperidine-1-carbonyl)-3-fluoroazetidin-1-yl)-4-(dimethylamino)but-2-en-1-one]: the IC50 in assay [1] is 113 nM; in assay [2] it was 131 nM; in assay [3], 339 nM; in assay [4], 84 nM.

For `C=CC(=O)N1CC(F)(C(=O)N2CCN(c3cc(C)c(-c4cnc5ccc(Nc6cc(OC)cc(OC)c6)cc5n4)cn3)CC2)C1` [Example 15, 1-(3-(4-(5-(7-((3,5-dimethoxyphenyl)amino)-quinoxalin-2-yl)-4-methylpyridin-2-yl)-piperazine-1-carbonyl)-3-fluoroazetidin-1-yl)prop-2-en-1-one], the IC50 came out at 528 nM in assay [1], 2370 nM in assay [2], 5000 nM in assay [3] and 5000 nM in assay [4].

Take `COc1cc(Nc2ccc3ncc(-c4cnn([C@@H]5CCN(C(=O)C6(F)CN(C(=O)/C=C/CN(C)C)C6)C5)c4)nc3c2)cc(OC)c1` [Example 19, (R,E)-1-(3-(3-(4-(7-((3,5-dimethoxyphenyl)amino)-quinoxalin-2-yl)-1H-pyrazol-1-yl)pyrrolidine-1-carbonyl)-3-fluoro-azetidin-1-yl)-4-(dimethyl-amino)but-2-en-1-one]: the IC50 in assay [1] worked out at 114 nM; in assay [2], 55 nM; in assay [3] it was 288 nM; in assay [4], 166 nM.

Take `C=CC(=O)N1CC(C(=O)N2CCC(n3ncc(-c4cnc5ccc(Nc6cc(OC)cc(OC)c6)cc5n4)c3C)CC2)C1` [Example 18, 1-(3-(4-(4-(7-((3,5-dimethoxyphenyl)amino)-quinoxalin-2-yl)-5-methyl-1H-pyrazol-1-yl)piperi-dine-1-carbonyl)azetidin-1-yl)prop-2-en-1-one]: the IC50 stood at 216 nM in assay [1], 244 nM in assay [2], 1210 nM in assay [3] and 555 nM in assay [4].

Consider `COc1cc(Nc2ccc3ncc(-c4cnn(C5CCN(C(=O)C6(F)CN(C(=O)/C=C/CN(C)C)C6)CC5)c4C)nc3c2)cc(OC)c1` [Example 17, (E)-1-(3-(4-(4-(7-((3,5-dimethoxyphenyl)amino)-quinoxalin-2-yl)-5-methyl-1H-pyrazol-1-yl)piperi-dine-1-carbonyl)-3-fluoroazetidin-1-yl)-4-(dimethylamino)but-2-en-1-one], for which the IC50 in assay [1] came out at 61 nM; in assay [2] it was 102 nM; in assay [3], 376 nM; in assay [4] it was 118 nM.

For `C=CC(=O)N1CC(CN2CCC(n3cc(-c4cnc5ccc(Nc6cc(OC)cc(OC)c6)cc5n4)cn3)CC2)(OC)C1` [Example 29, 1-(3-((4-(4-(7-((3,5-dimethoxyphenyl)amino)quinoxalin-2-yl)-1H-pyrazol-1-yl)piperidin-1-yl)methyl)-3-methoxyazetidin-1-yl)prop-2-en-1-one], the IC50 in assay [1] amounted to 25 nM; in assay [2], 50 nM; in assay [3], 414 nM; in assay [4] it was 333 nM.

`C#CCN(c1cc(OC)cc(OC)c1)c1ccc2ncc(-c3cnn(C4CCN(C(=O)C5(F)CN(C(=O)/C=C/CN(C)C)C5)CC4)c3)nc2c1` [Example 28, (E)-1-(3-(4-(4-(7-((3,5-dimethoxyphenyl)(prop-2-yn-1-yl)amino)quinoxalin-2-yl)-1H-pyrazol-1-yl)piperidine-1-carbonyl)-3-fluoroazetidin-1-yl)-4-(dimethylamino)but-2-en-1-one]: the half-maximal inhibitory concentration (IC50) in assay [1] stood at 8 nM; in assay [2] it was 6 nM; in assay [3], 21 nM; in assay [4], 5 nM.

As to `C=CC(=O)N1CC(C(=O)N2CCN(c3ccc(-c4cnc5ccc(Nc6cc(OC)cc(OC)c6)cc5n4)cn3)CC2)C1` [Example 5, 1-(3-(4-(5-(7-((3,5-dimethoxyphenyl)amino)-quinoxalin-2-yl)pyridin-2-yl)piperazine-1-carbonyl)azetidin-1-yl)-prop-2-en-1-one], the 50% inhibitory concentration (IC50) in assay [1] worked out at 317 nM; in assay [2] it was 623 nM; in assay [3] it was 448 nM; in assay [4], 365 nM.

As to `C=CC(=O)N1CC(O)(C(=O)N2CCC(n3cc(-c4cnc5ccc(Nc6cc(OC)cc(OC)c6)cc5n4)cn3)CC2)C1` [Example 26, 1-(3-(4-(4-(7-((3,5-dimethoxyphenyl)amino)quinoxalin-2-yl)-1H-pyrazol-1-yl)piperidine-1-carbonyl)-3-hydroxyazetidin-1-yl)prop-2-en-1-one], the half-inhibitory concentration (IC50) in assay [1] came to 153 nM; in assay [2], 37 nM; in assay [3], 118 nM; in assay [4], 121 nM.

For the origin of these results see patent US12351571B2, “Substituted quinoxaline compounds as inhibitors of FGFR tyrosine kinases” (ARRAY BIOPHARMA INC., priority 2018, dated 2025).
